Results taken from PubChem BioAssay AID1963839 (Molecular Pharmacology Branch, DTP, NCI, 2024).
pIC50: −log10 of the molar value.

Tested on: 817829-284-R-J1-PDC complex spheroid viability
Test: Anticancer human tumor 817829-284-R-J1-PDC patient-derived colon adenocarcinoma cell line growth inhibition [POLQ]
Settings: for pIC50: curve of first compound; for viability, T/C: stronger effect = lower value
Description: Multicellular complex tumor spheroid response to Polymerase (POL) inhibitors (novobiocin, ART-558, RP6685) in combination with a variety of drugs and investigational agents in selected tumor cell lines
The POL inhibitors (novobiocin, ART-558, and RP6685) were evaluated both individually and in combination with standard of care and investigational anticancer small molecules within a complex spheroid model of solid tumors. . Complex spheroids include a stromal component modeled by human endothelial cells (HUVEC) and fibroblasts modeled by human mesenchymal stem cells (MSCs). The concentration ranges selected for each drug and investigational agent were based upon clinically achievable concentrations if the clinical Cmax of the agent was known.
Compounds. The drugs and investigational agents: novobiocin (NSC847541), ART-558 (NSC835418), RP-6685 (NSC848927), peposertib (NSC802822), ceralasertib (NSC780249), elimusertib (NSC800525), camonsertib (NSC841442), AZD-1390 (NSC803789), olaparib (NSC753686), talazoparib (NSC767125), rucaparib (NSC756644), sotorasib (NSC818433), MRTX-1133 (NSC836407), SN-38 (NSC673596), topotecan (NSC609699), epotoside (NSC141540), doxorubicin (NSC123127), gemcitabine (NSC613327), 5-fluorouracil (NSC19893), paclitaxel (NSC125973), vemurafenib (NSC761431), MSA-2 (NSC828583), SN-011 (NSC837082), adavosertib (NSC754352), prexasertib (NSC758257), carboplatin (NSC241240) and oxaliplatin (NSC266046), were obtained from the National Cancer Institute (NCI) Developmental Therapeutics Program Chemical Repository (21). The FDA-approved anticancer drug set is available from the Developmental Therapeutics Program at https://dtp.cancer.gov/organization/dscb/obtaining/. […] The stock solutions were prepared in dimethyl sulfoxide (DMSO, Sigma-Aldrich, St. Louis, MO, cat. D2650), except for the platinum compounds which were prepared in saline (Quality Biological, Gaithersburg, MD, cat. 114-055-101), at 800-fold the tested concentration and stored at -70 degrees C prior to their use. All drugs and investigational agents were tested over a range starting from a high concentration at or near the clinical Cmax and decreasing in half-log increments. If the clinical Cmax for an agent had not been determined, the highest concentration tested was 10 microM, except for SN-38, which was tested at a high concentration of 1 microM.
Cell Culture. All cells were maintained in an incubator at 37 degrees C and 5% CO2 with 95% humidity. The PDC lines were cultured according to standard operating procedures established by the NCI PDMR (https://pdmr.cancer.gov). Table 3 of the manuscript, lists the cell lines along with the number of the three cell types plated to form the mct-spheroids and media for tumor cell growth. After thawing, all PDC lines, except 997537-175-T-J1-PDC and 415267-285-R-J2-PDC, were cultured in Matrigel-coated flasks prepared with a working solution of 1X Ham's F-12 nutrient mix, without supplementation (Thermo Fisher Scientific, cat. 11765054), 100 U/mL penicillin-streptomycin (Thermo Fisher Scientific, cat. 15140122), and 2.5% Matrigel (Corning Inc., Corning, NY, cat. 354248) for the first three passages. The two PDC lines 997537-175-T-J1-PDC and 415267-285-R-J2-PDC were cultured on uncoated flasks. The 857933-349-R-J2-PDC line was cultured in 6C/Colon 1B media containing advanced DMEM/F-12 (Thermo Fisher Scientific, cat. 12634028), 10 mM HEPES (Thermo Fisher Scientific, cat. 15630080), 1X GlutaMAX supplement (Thermo Fisher Scientific, cat. 35050061), 0.1 mg/mL primocin (InvivoGen, San Diego, CA, cat. ant-pm-2), 10% defined fetal bovine serum, heat inactivated (HyClone Laboratories Inc., Logan, UT, cat. SH30070.03HI), 50% L-WRN conditioned media (ATCC, cat. CRL-3276), 1.25 mM N-Acetyl-L-cysteine (Sigma-Aldrich, cat. A9165), 10 mM nicotinamide (Sigma-Aldrich, cat. N0636), 1X B-27 supplement (Thermo Fisher Scientific, cat. 17504044), 1X N-2 supplement (Thermo Fisher Scientific, cat. […]

[1] = second compound 0.0316 µM, first compound 0.0316 µM
[2] = second compound 0.0316 µM, first compound 0.1 µM
[3] = second compound 0.0316 µM, first compound 0.316 µM
[4] = second compound 0.0316 µM, first compound 1 µM
[5] = second compound 0.1 µM, first compound 0.0316 µM
[6] = second compound 0.1 µM, first compound 0.1 µM
[7] = second compound 0.1 µM, first compound 0.316 µM
[8] = second compound 0.1 µM, first compound 1 µM
[9] = second compound 0.316 µM, first compound 0.0316 µM
[10] = second compound 0.316 µM, first compound 0.1 µM
[11] = second compound 0.316 µM, first compound 0.316 µM
[12] = second compound 0.316 µM, first compound 1 µM
[13] = second compound 1 µM, first compound 0.0316 µM
[14] = second compound 1 µM, first compound 0.1 µM
[15] = second compound 1 µM, first compound 0.316 µM
[16] = second compound 1 µM, first compound 1 µM
[17] = second compound 3.16 µM, first compound 0.0316 µM
[18] = second compound 3.16 µM, first compound 0.1 µM
[19] = second compound 3.16 µM, first compound 0.316 µM
[20] = second compound 3.16 µM, first compound 1 µM
[21] = second compound 10 µM, first compound 0.0316 µM
[22] = second compound 10 µM, first compound 0.1 µM
[23] = second compound 10 µM, first compound 0.316 µM
[24] = second compound 10 µM, first compound 1 µM
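Also: spheroids exposed to compounds for 7 days.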
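For viability, T/C in this document: 100% = DMSO vehicle-treated spheroids.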

C#Cc1c(F)ccc2cc(O)cc(-c3ncc4c(N5CC6CCC(C5)N6)nc(OCC56CCCN5CC(F)C6)nc4c3F)c12 (centres undefined) + Nc1ccc(C#CCN(C(=O)Cc2ncc(C(F)(F)F)cc2C(F)(F)F)c2ccc(F)cc2)nn1
pIC50 (second compound 0.0316 µM): < 5.00 | pIC50 (second compound 0.1 µM): < 5.00 | pIC50 (second compound 0.316 µM): < 5.00 | pIC50 (second compound 1 µM): < 5.00 | pIC50 (second compound 3.16 µM): < 5.00 | pIC50 (second compound 10 µM): < 5.00 | viability, T/C [1]: 78.6% | viability, T/C [2]: 105% | viability, T/C [3]: 104% | viability, T/C [4]: 93.8% | viability, T/C (second compound 0.0316 µM, first compound 3.16 µM): 114% | viability, T/C (second compound 0.0316 µM, first compound 10 µM): 84.2% | viability, T/C [5]: 92.1% | viability, T/C [6]: 87.9% | viability, T/C [7]: 93% | viability, T/C [8]: 92.4% | viability, T/C (second compound 0.1 µM, first compound 3.16 µM): 103% | viability, T/C (second compound 0.1 µM, first compound 10 µM): 92.7% | viability, T/C [9]: 101% | viability, T/C [10]: 94.5% | viability, T/C [11]: 105% | viability, T/C [12]: 86.8% | viability, T/C (second compound 0.316 µM, first compound 3.16 µM): 116% | viability, T/C (second compound 0.316 µM, first compound 10 µM): 91.8% | viability, T/C [13]: 106% | viability, T/C [14]: 88.4% | viability, T/C [15]: 98.6% | viability, T/C [16]: 91.6% | viability, T/C (second compound 1 µM, first compound 3.16 µM): 97.9% | viability, T/C (second compound 1 µM, first compound 10 µM): 101% | viability, T/C [17]: 97.5% | viability, T/C [18]: 99.8% | viability, T/C [19]: 101% | viability, T/C [20]: 86.9% | viability, T/C (second compound 3.16 µM, first compound 3.16 µM): 93.2% | viability, T/C (second compound 3.16 µM, first compound 10 µM): 95.7% | viability, T/C [21]: 95.5% | viability, T/C [22]: 102% | viability, T/C [23]: 73.8% | viability, T/C [24]: 102% | viability, T/C (second compound 10 µM, first compound 3.16 µM): 96.3% | viability, T/C (second compound 10 µM, first compound 10 µM): 80.4%

CCc1c2c(nc3ccc(O)cc13)-c1cc3c(c(=O)n1C2)COC(=O)[C@]3(O)CC + Nc1ccc(C#CCN(C(=O)Cc2ncc(C(F)(F)F)cc2C(F)(F)F)c2ccc(F)cc2)nn1
pIC50 (second compound 0.0316 µM): > 8.50 | pIC50 (second compound 0.1 µM): > 8.50 | pIC50 (second compound 0.316 µM): > 8.50 | pIC50 (second compound 1 µM): > 8.50 | pIC50 (second compound 3.16 µM): > 8.50 | pIC50 (second compound 10 µM): > 8.50 | viability, T/C (second compound 0.0316 µM, first compound 0.00316 µM): 22.5% | viability, T/C (second compound 0.0316 µM, first compound 0.01 µM): 14.5% | viability, T/C [1]: 14.1% | viability, T/C [2]: 9.79% | viability, T/C [3]: 5.25% | viability, T/C [4]: 3.01% | viability, T/C (second compound 0.1 µM, first compound 0.00316 µM): 20.9% | viability, T/C (second compound 0.1 µM, first compound 0.01 µM): 17.8% | viability, T/C [5]: 12.8% | viability, T/C [6]: 8.52% | viability, T/C [7]: 4.76% | viability, T/C [8]: 2.98% | viability, T/C (second compound 0.316 µM, first compound 0.00316 µM): 18.2% | viability, T/C (second compound 0.316 µM, first compound 0.01 µM): 19.1% | viability, T/C [9]: 11.2% | viability, T/C [10]: 7.52% | viability, T/C [11]: 4.9% | viability, T/C [12]: 2.95% | viability, T/C (second compound 1 µM, first compound 0.00316 µM): 22.2% | viability, T/C (second compound 1 µM, first compound 0.01 µM): 21.4% | viability, T/C [13]: 14.4% | viability, T/C [14]: 7.16% | viability, T/C [15]: 4.75% | viability, T/C [16]: 2.54% | viability, T/C (second compound 3.16 µM, first compound 0.00316 µM): 15.1% | viability, T/C (second compound 3.16 µM, first compound 0.01 µM): 16.2% | viability, T/C [17]: 13% | viability, T/C [18]: 7.06% | viability, T/C [19]: 4.44% | viability, T/C [20]: 2.95% | viability, T/C (second compound 10 µM, first compound 0.00316 µM): 21.7% | viability, T/C (second compound 10 µM, first compound 0.01 µM): 17% | viability, T/C [21]: 10% | viability, T/C [22]: 7.06% | viability, T/C [23]: 3.78% | viability, T/C [24]: 2.98%
